Data taken from patent US20190072562A1, “SYSTEM AND METHOD FOR DETERMINATION OF LIGAND-TARGET BINDING BY MULTI-PHOTON FLUORESCENCE ANISOTROPY MICROSCOPY” (THE GENERAL HOSPITAL CORPORATION, priority 2014, published 2019).

Legend:
NeutrAvidin = biological target: T1, NeutrAvidin (Gallus gallus, UniProt P02701); experiment: Biotin-BODIPY and NeutrAvidin binding by MFAM anisotropy; conditions: 10x unlabeled biotin (100 μM)
T1 construct: purchased Thermo Scientific
Method: Biotin was conjugated to Me5-BODIPY (Biotin-BODIPY) and brought to 1 mM stock solution in DMSO. Biotin-BODIPY (10 μM) was mixed with varying concentrations of NeutrAvidin (Thermo Scientific) in PBS with 1% Triton X (Sigma). Each sample was imaged in triplicate as a drop between a microscope slide and cover glass. Measurements of each sample were also performed using single photon excitation in a plate reader. Measurements were also made in the presence of 100 μM free Biotin to competitively compete with the Biotin-BODIPY.

PARP1 [1] = biological target: T2, PARP1 (Homo sapiens, UniProt P09874); experiment: MFAM fluorescence anisotropy of free vs PARP1-bound AZD2281-BODIPY FL in solution; format: binding; conditions: PARP1 at 1.6x of 5 μM probe, imaging media with 2.5% FBS
Method: AZD2281 labeled with BODIPY FL (AZD2281-BODIPY FL) was prepared as previously described (see Thurber, G. M. et al., Single-cell and subcellular pharmacokinetic imaging allows insight into drug action in vivo, Nat Commun, 4, 1504, (2013), for example). PARP1 (BioVision) was brought up in the manufactures recommended solution and added at 1.6× the concentration of AZD2281-BODIPY FL (5 μM) in imaging media containing 2.5% FBS. Free AZD2281-BODIPY FL (5 μM) (no PARP) in the same imaging media with 2.5% FBS and in DMSO solutions were also made. Images were taken of drops of solution between cover glass.
(§1) Images were analyzed in Matlab (Mathworks) and ImageJ. All anisotropy measurements were calculated from the equation r=(I∥−I⊥)/(I∥+2I⊥). The detector noise of the two photodetectors was subtracted from the whole images before the data were processed. Fluorescence images represent the denominator of the anisotropy equation, which represents the entire fluorescence from the sample. Anisotropy values were obtained by defining a region of interest and measuring the average anisotropy within that region. Regions were extended to fluorescent images to calculate the corresponding intensity. […]

PARP [2] = biological target: T3, PARP (Homo sapiens, UniProt P09874); experiment: In vitro cellular MFAM imaging of drug target engagement in live cells; format: cell-based
T3 construct: endogenous in cells; host or cells: HT1080
Method: HT1080 cells (ATCC) stably expressing H2B mApple fluorescent protein were cultured in DMEM with 10% FBS, 1% pen-strep and 100 μg/ml geneticin (Invitrogen). HT1080 cells were cultured in DMEM with 10% FBS and 1% pen-strep. […] Cells were plated onto 25 mm #1 cover glass for in vitro imaging.
Cells on 25 mm cover glass were mounted into a closed bath perfusion chamber (Warner Instruments) and perfused with a custom perfusion system that enabled solution switching in the imaging chamber. Cells were imaged in phenol red-free DMEM with 10% FBS and 1% pen-strep. AZD2281-BODIPY FL (1 μM) was perfused into the imaging chamber followed by a washout with drug free media. Images were obtained during the entire time interval at regular time points. For competition experiments, free AZD2281 (5 μM) (Selleck Chemicals) was added to the incubating solution before during and after AZD2281-BODIPY FL addition. Me5-BODIPY was used for fluorophore control experiments.
as §1

PARP [3] = experiment: In vivo MFAM imaging of drug target engagement in HT1080 tumor, mouse dorsal skinfold window chamber
Method: All animal experiments were performed in accordance with the Institutional Animal Care and Use Committee at Massachusetts General Hospital. Female 20-weeks old nude mice (Cox-7, Massachusetts General Hospital) were used. All surgical procedures were conducted under sterile conditions and facilitated through the use of a zoom stereomicroscope (Olympus SZ61). During all surgical procedures and imaging experiments mice were anesthetized by isofluorane vaporization (Harvard Apparatus) at a flow rate of […]: 2 L/minute oxygen. The body temperature of the mice was kept constant at 37° C. during all imaging experiments and surgical procedures. Dorsal skinfold window chambers (DSC) were implanted one day prior to imaging following a well-established protocol. Briefly, the two layers of skin on the back of the mouse were stretched and kept in place by the DSC. One skin layer was surgically removed and replaced by a 12-mm diameter glass cover slip positioned on one side of the DSC allowing for convenient access and imaging of the tumor area. A spacer located on the DSC prevented excessive compression of both tissue and vessel guaranteeing good vascularperfusion within the tumor region.
HT1080 H2B mApple cells were harvested by trypsinization (0.25% trypsin:EDTA) and resuspended in PBS. […]

PARP1 [4] = biological target: T2, PARP1; experiment: FLIM fluorescence lifetime upon binding to PARP1 in vitro
Method: Fluorescence lifetime imaging was performed using a Zeiss 710 confocal NLO laser scanning system on an upright Zeiss Examiner stand with a 40×NA 1.1 water immersion LD CApochromat objective and a Becker & Hickl TCSPC system. Two-photon excitation was achieved using a Coherent Chameleon Vision II tunable laser (680-1040 nm) that provided 140-femtosecond pulses at a 80-Mhz repetition rate with an output power of 3 W at the peak of the tuning curve (800 nm). Laser scanning was controlled by Zeiss Zen software and set to a pixel dwell time of 1.58 microseconds and 0.9-sec frame rate at 910 nm wavelength excitation.
Enhanced detection of the scattered component of the emitted (fluorescence) photons was afforded by the use of a Becker & Hickl HPM-100-40 hybrid detector, which incorporates the Hamamatsu R10467 hybrid PMT tube Imaging was performed in the dark with blackout enclosure around the microscope to exclude external sources of light during the sensitive period of FLIM measurement. Emitted fluorescence was deflected to the non-descanned light path via a 760+ mirror and emission range was limited to 500-550 nm by a Chroma filter in front of the HPM-100-40 detector. […]
where r0 is the fundamental anisotropy of the dye-dependent on the orientation of the excitation and emission dipole moments. […] The fluorescent microspheres (100% and 30%) had the same fluorescence lifetime, 3.6±0.3 nsec. […]

T3 sequence (P09874 2-1014): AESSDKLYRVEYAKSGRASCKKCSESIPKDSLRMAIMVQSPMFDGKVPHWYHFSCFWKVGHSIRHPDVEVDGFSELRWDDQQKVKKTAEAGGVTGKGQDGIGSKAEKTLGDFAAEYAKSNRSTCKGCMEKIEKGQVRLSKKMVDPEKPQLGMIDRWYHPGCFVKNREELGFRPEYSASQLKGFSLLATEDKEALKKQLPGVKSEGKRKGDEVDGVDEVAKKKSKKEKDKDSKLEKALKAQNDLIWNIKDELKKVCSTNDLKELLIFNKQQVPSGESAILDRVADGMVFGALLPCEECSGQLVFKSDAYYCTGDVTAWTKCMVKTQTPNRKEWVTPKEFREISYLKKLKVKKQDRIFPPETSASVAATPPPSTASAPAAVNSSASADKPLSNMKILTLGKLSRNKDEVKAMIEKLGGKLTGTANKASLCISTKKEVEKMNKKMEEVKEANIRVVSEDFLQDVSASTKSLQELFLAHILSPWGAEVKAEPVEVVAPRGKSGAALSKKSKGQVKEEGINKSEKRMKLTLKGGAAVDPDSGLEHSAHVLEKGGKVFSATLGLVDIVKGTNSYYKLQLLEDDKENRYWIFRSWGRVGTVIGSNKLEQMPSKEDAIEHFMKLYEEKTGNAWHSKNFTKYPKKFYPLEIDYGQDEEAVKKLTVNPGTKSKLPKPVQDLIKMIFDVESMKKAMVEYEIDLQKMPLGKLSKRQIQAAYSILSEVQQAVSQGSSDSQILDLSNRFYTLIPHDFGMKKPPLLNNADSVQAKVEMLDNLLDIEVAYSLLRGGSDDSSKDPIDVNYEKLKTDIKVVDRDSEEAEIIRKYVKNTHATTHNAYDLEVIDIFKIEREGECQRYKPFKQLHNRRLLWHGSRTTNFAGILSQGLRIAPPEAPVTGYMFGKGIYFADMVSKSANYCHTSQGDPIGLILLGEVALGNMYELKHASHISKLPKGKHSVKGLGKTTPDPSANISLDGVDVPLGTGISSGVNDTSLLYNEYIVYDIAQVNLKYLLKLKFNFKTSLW
T2 sequence (P09874 whole entry): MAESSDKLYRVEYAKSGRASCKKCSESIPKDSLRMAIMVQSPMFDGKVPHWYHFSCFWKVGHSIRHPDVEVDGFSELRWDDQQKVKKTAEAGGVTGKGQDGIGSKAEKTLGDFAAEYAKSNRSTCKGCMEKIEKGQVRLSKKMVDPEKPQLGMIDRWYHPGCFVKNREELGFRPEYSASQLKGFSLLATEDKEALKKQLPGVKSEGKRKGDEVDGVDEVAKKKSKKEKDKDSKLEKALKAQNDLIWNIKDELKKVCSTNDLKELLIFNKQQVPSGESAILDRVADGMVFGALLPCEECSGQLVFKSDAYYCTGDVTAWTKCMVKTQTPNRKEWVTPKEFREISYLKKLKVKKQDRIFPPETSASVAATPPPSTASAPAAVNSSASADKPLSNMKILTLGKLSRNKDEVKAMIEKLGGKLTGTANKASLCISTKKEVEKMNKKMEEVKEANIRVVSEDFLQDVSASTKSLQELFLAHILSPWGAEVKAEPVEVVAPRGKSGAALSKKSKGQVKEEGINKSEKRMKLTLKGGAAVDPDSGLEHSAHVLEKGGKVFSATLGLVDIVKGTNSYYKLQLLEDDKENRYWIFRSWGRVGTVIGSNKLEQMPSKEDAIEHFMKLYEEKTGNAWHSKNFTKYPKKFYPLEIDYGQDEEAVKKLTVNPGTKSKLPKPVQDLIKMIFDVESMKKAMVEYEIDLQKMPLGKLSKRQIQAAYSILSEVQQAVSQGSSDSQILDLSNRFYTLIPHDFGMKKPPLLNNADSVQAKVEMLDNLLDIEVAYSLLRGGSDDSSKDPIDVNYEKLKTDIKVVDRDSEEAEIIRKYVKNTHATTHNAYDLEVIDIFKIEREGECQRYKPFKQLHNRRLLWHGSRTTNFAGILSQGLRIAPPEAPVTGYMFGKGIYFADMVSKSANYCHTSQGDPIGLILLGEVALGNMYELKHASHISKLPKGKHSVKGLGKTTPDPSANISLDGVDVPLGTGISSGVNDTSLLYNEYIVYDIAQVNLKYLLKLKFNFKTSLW
T1 sequence (P02701 25-152): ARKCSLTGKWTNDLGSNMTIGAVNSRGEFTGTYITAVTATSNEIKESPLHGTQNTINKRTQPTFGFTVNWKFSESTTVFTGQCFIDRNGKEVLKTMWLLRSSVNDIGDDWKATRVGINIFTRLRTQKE

O=C(O)CCCC[C@@H]1SC[C@@H]2NC(=O)N[C@@H]21 [biotin]
anisotropy increase of Biotin-BODIPY in presence of unlabeled competitor (NeutrAvidin): suppressed

Cc1cc(C)n2c1C=C1C=CC(CCC(=O)N3CCN(C(=O)c4cc(Cc5n[nH]c(=O)c6ccccc56)ccc4F)CC3)=[N+]1[B-]2(F)F [AZD2281-BODIPY FL]
anisotropy of target-bound over free or intracellular drug (PARP1 [1]): significant increase in anisotropy | localisation of bound drug (high anisotropy) (PARP [2]; HT1080 cells incubated with probe): bound drug was present in the nucleus | bound drug after extended washing cycles (PARP [2]; HT1080 cells, after washing): the nuclear, bound drug remains | target binding in the cytoplasm (PARP [2]; HT1080 cells, loading and washing): no target binding | nuclear anisotropy over time in vivo (PARP [3]; after intravenous infusion vs 34 minutes later): the nuclear anisotropy increased | binding to PARP in the nucleus in vivo (PARP [3]; intravenous, implanted HT1080 H2B mApple tumor): occurred immediately upon drug infusion | fluorescence lifetime (PARP1 [4]; bound to PARP1): 3.3±0.3 nsec | fluorescence lifetime (PARP1 [4]; unbound): 4.1±0.3 nsec
